Data taken from publication PMC4879371, “Antitrypanosomal Activities and Mechanisms of Action of Novel Tetracyclic Iridoids from Morinda lucida Benth” (Antimicrobial Agents and Chemotherapy, 2016).

Tests used:
[1] = MTT cytotoxicity assay, Hs888Lu; format: cell-based, human; details: human, Hs888Lu lung cells; Hs888Lu normal lung, 48 h
Protocol: (§1) The cytotoxicity of the compounds to mammalian cells were determined using four human normal cell lines, namely, NB1RGB (skin fibroblast) and HF-19 (lung fibroblast) obtained from the RIKEN Bio Resource Center Cell Bank (Japan) and Chang Liver and Hs888Lu (lung) obtained from the European Collection of Authenticated Cell Cultures (ECACC). NB1RGB and HF-19 were maintained in minimum essential medium-α (MEM-α). Chang Liver and Hs888Lu were grown in Eagle's minimum essential medium (EMEM) and RPMI 1640, respectively. All of these media were supplemented with 10% fetal bovine serum (FBS) and 1% penicillin-streptomycin and were then incubated at 37°C under 5% CO2 in fully humidified conditions.
(§2) Cytotoxicity was determined using a 3-(4,5-dimethylthiazol-2-yl)-2,5-diphenyltetrazolium bromide (MTT) assay. The cells were treated with molucidin, ML-2-3, or ML-F52 at concentrations of ≤50 μM for 48 h. Cells were plated at a density of 0.5 × 10^4 cells/well into 96-well plates. After 24 h of incubation, cells were treated with various concentrations of each of the purified compounds for 48 h. Then, MTT solution was added to each well, and the cells were incubated for another 4 h. The precipitated MTT-formazan product was dissolved in 0.04 N HCl-isopropanol, and the amount of formazan was measured at a wavelength of 595 nm by a microplate reader (Immuno Mini NJ-2300; Nihon InterMed, Tokyo, Japan). Cytotoxicity was calculated as the percentage of live cells relative to the control culture. The selectivity index (SI) was expressed as the ratio of the IC50 obtained for mammalian cells and the IC50 for trypanosomes.

Hs888Lu (lung) = assay: MTT cytotoxicity assay, Hs888Lu; format: cell-based, human; details: IC50 Hs888Lu / IC50 trypanosomes
Protocol: as §1, §2

[2] = MTT cytotoxicity assay, Chang Liver; format: cell-based, human; details: human, Chang Liver cells; Chang liver normal liver, 48 h
Protocol: as §1, §2

Chang Liver = assay: MTT cytotoxicity assay, Chang Liver; format: cell-based, human; details: IC50 Chang liver / IC50 trypanosomes
Protocol: as §1, §2

[3] = tested on: four human normal cell lines (NB1RGB, HF-19, Chang Liver, Hs888Lu); assay: MTT cytotoxicity assay, all cell lines tested; format: cell-based
Protocol: as §1, §2

[4] = tested on: T. brucei brucei parasites; assay: Parasite morphology, DAPI / anti-PFR-2 immunohistochemistry; format: cell-based, Trypanosoma brucei brucei; details: 24 h; 5 μM molucidin, 15 μM ML-2-3, 0.43 μM ML-F52
Protocol: To investigate the effect of the compounds on parasite morphology and their flagellum function, immunohistochemistry using anti-paraflagellum rod protein anti-PFR-2 antibody ([37]), was performed with molucidin-, ML-2-3-, and ML-F52-treated trypanosome parasites. […] Parasites were then harvested after incubation with or without appropriate concentrations of compounds and were fixed with 4% paraformaldehyde in 8-well chamber slides at room temperature for 5 min. Washing steps were carried out with 500 μl of phosphate-buffered saline (PBS) twice and 0.1% Triton X-100 in PBS (PBST) at room temperature for 5 min each. Blocking reagent (500 μl; 3% bovine serum albumin [BSA] in PBS) was added and incubated for 30 min at room temperature. Primary and secondary antibody incubation with parasites was done for 1 h each, and 4′,6-diamidino-2-phenylindole (DAPI) (5 μg/ml DAPI in PBS) staining was done for 10 min. After the washing steps presented above, the slides were mounted using PermaFluor mounting reagent and were covered with coverslips. The slides were observed under an Olympus fluorescence microscope (Olympus BX53) to detect any phenotypic changes in T. brucei brucei parasites.

[5] = tested on: Trypanosoma brucei parasites; assay: FACS cell cycle assay, time course; format: cell-based
Protocol: Seeding and incubation of parasites with compounds were done under the same conditions as those for the alamarBlue assay as described above without addition of the alarmarBlue reagent. In this case, after 24 h of incubation, Guava reagents for Nexin and cell cycle assays were added, and each assay was performed using the Millipore Guava easyCyte 5HT fluorescence-activated cell sorter (FACS) machine according to the manufacturer's instruction. The Nexin assay and subsequent FACS analysis allowed for detection of markers of apoptosis induction by the plant materials. Similarly, the cell cycle assay and subsequent FACS analysis allowed for detection of markers of cell cycle alteration by the plant materials.
To investigate the sequence in which the events (apoptosis induction, PFR-2 suppression, and cell cycle alteration) involved in mechanisms of action occur, we examined the time course for the three events using ML-2-3-treated parasites. Trypanosoma brucei parasites were incubated for 0, 0.5, 1.5, 3, 6, and 24 h with 15 μM ML-2-3 and were then subjected to both Nexin assay and Western blot analyses using the PFR-2 antibody. We further investigated the time course of cell cycle alteration using ML-2-3-treated parasites at similar concentrations and incubation periods.

[6] = tested on: T. brucei brucei (TC-221 strain); format: in vivo; details: for survival of mice / death, days postinfection: vehicle control died at day 9
Protocol: Six-week-old BALB/c female mice with an average weight of 20 g were infected with 1 × 10^3 cells of T. brucei brucei (TC-221 strain) and were randomly grouped into four cages containing five mice each. The first 3 groups were treated with 30 mg/kg of body weight of molucidin, ML-2-3, and ML-F52, respectively, 6 h postinfection and continued daily afterward for 5 consecutive days. The last group received physiological saline containing <0.1% of DMSO as a vehicle control. Parasitemia and weight were monitored daily until 20 days postinfection. The experiments were conducted in compliance with the internationally accepted principles for laboratory animal use and care as contained in the Canadian Council on Animal Care guidelines on animal use protocol review.

Plasmodium falciparum = assay: Preliminary in vitro anti-Plasmodium activity; format: cell-based; details: preliminary studies, unpublished data
Plasmodium yoelii = assay: Preliminary in vivo studies against Plasmodium yoelii; details: BALB/c mice, unpublished data
[7] = 30 mg/kg intraperitoneally, 5 consecutive days

COc1cc(/C=C2/C(=O)O[C@]34C=C[C@@H]5C(C(=O)O)=CO[C@H](O[C@@H]23)[C@@H]54)ccc1O [ML-2-3]
IC50 at 48 h [1]: > 50 µM | SI (selectivity index) (Hs888Lu (lung)): >13.33 | IC50 at 48 h [2]: > 50 µM | SI (selectivity index) (Chang Liver): >13.33 | selectivity index (SI) for all of the cell lines [3]: > 10 | cytotoxicity among all cell lines ([3]; ≤50 μM, 48 h): did not show any cytotoxicity | effect on nuclei and kinetoplast (DAPI) [4]: fragmented nuclei with normal kinetoplast | effect on parasite cell form [4]: typical short stumpy form | time of exposure to significant changes in cell cycle ([5]; 15 μM ML-2-3): ≤ 0.5 h | S-phase cells ([5]; 15 μM, 0.5 h to 24 h): stayed stable | G2/M-phase cells ([5]; 15 μM, within 0.5 h of exposure, decreased from 31%): 9% | survival of mice / death, days postinfection [6, 7]: 9 days | anti-Plasmodium activity in vitro (Plasmodium falciparum): anti-Plasmodium activities

COC(=O)C1=CO[C@@H]2O[C@H]3/C(=C\c4ccc(O)c(OC)c4)C(=O)O[C@]34C=C[C@H]1[C@H]24 [molucidin]
IC50 at 48 h [1]: 9.29 µM | SI (selectivity index) (Hs888Lu (lung)): 7.31 | IC50 at 48 h [2]: 9.34 µM | SI (selectivity index) (Chang Liver): 7.35 | effect on nuclei and kinetoplast (DAPI) [4]: intact kinetoplast but totally disintegrated nuclei | effect on parasite cell form [4]: stumpy-like parasites | toxicity in mice ([6]; mouse, in vivo): severe toxicity | anti-Plasmodium activity in vitro (Plasmodium falciparum): anti-Plasmodium activities | efficacy against Plasmodium yoelii in vivo (Plasmodium yoelii): significant efficacy

CCOC(=O)C1=CO[C@@H]2O[C@H]3/C(=C\c4ccc(O)c(OC)c4)C(=O)O[C@]34C=C[C@H]1[C@H]24 [ML-F52]
IC50 at 48 h [1]: 8.89 µM | SI (selectivity index) (Hs888Lu (lung)): 20.67 | IC50 at 48 h [2]: 18.1 µM | SI (selectivity index) (Chang Liver): 42.16 | selectivity index (SI) for all of the cell lines [3]: > 10 | effect on nuclei and kinetoplast (DAPI) [4]: fragmented nuclei with normal kinetoplast | effect on parasite cell form [4]: abnormal cells that had two sets of kinetoplasts and flagellum with fragmented nuclei | cure for 20 days postinfection [6, 7]: 100% | survival of mice / death, days postinfection [6, 7]: 20 days | anti-Plasmodium activity in vitro (Plasmodium falciparum): anti-Plasmodium activities
